Several values for one entry are separate records, joined by “and”; a condition that tells them apart may be missing. Equal values may be shown once.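 Exposure lasted 48 hours, with cells grown in 96-well plates and compounds tested at five concentrations. GI50: concentration for 50% inhibition of growth. TGI is the concentration that stops growth completely.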
Tests used:
Test in all cases: NCI anticancer screen, dose series, 48 h
[1] = tested on: NCI-H23 lung
[2] = tested on: DU-145 prostate
[3] = tested on: HCT-15 colon
[4] = tested on: UACC-62 melanoma
[5] = tested on: OVCAR-4 ovarian
[6] = tested on: CAKI-1 renal
[7] = tested on: RXF 393 renal
[8] = tested on: HT29 colon
[9] = tested on: TK-10 renal
[10] = tested on: SF-268 CNS

Compound NC1=NC(c2ccc(Cl)cc2)N(c2ccc(S(=O)(=O)Nc3ncccn3)cc2)C(N)=N1 (centres undefined) has a TGI [1] greater than 100 µM, a TGI [2] greater than 100 µM and a TGI [3] greater than 100 µM. For the same compound, the TGI [4] was greater than 100 µM, the TGI [5] was greater than 100 µM and the TGI [6] was greater than 100 µM. The TGI [7] was greater than 100 µM, the TGI [8] was greater than 100 µM and the TGI [9] was greater than 100 µM. The TGI [10] was greater than 100 µM.

Compound Cc1oc2nc[nH]c(=O)c2c1C(=O)/C=C/c1ccc(Cl)cc1 has a GI50 [1] of 2.51 µM, a TGI [1] of 15.3 µM and a GI50 [2] of 2.82 µM. The TGI [2] was 11.3 µM, the GI50 [3] was 1.29 µM and the TGI [3] was 3.51 µM. It also gave a GI50 [4] of 1.64 µM, a TGI [4] of 5.37 µM and a GI50 [5] of 4.43 µM. The TGI [5] was 16.1 µM, the GI50 [6] was 3.06 µM and the TGI [6] was 22.8 µM. The GI50 [7] was 1.97 µM, the TGI [7] was 4.98 µM and the GI50 [8] was 2.9 µM. For the same compound, the TGI [8] was 10.6 µM, the GI50 [9] was 5.09 µM and the TGI [9] was 13.6 µM. The GI50 [10] was 3.17 µM and the TGI [10] was 16.8 µM.

With O=c1oc2cc(N=Cc3ccccc3Cl)ccc2c2ccccc12 the TGI [1] was greater than 100 µM, the TGI [2] was greater than 100 µM and the TGI [3] was greater than 100 µM. For the same compound, the TGI [4] was greater than 100 µM, the TGI [5] was greater than 100 µM and the TGI [6] was greater than 100 µM. The TGI [7] was greater than 100 µM, the TGI [8] was greater than 100 µM and the TGI [10] was greater than 100 µM.

Work on CCN(CC)C(=O)CC1=C(C)/C(=C/c2[nH]c(-c3ccc[nH]3)cc2OC)N=C1C yielded a GI50 [1] of 0.794 µM, a TGI [1] of 71.9 µM and a GI50 [2] of 0.546 µM. The TGI [2] was greater than 100 µM, the GI50 [3] was 0.278 µM and the TGI [3] was 0.891 µM. For the same compound, the GI50 [5] was 0.409 µM, the TGI [5] was greater than 100 µM and the GI50 [6] was 0.383 µM. It also gave a TGI [6] of 11.4 µM, a GI50 [7] of 1.1 µM and a TGI [7] of 22.9 µM. It also gave a GI50 [8] of 0.287 µM, a TGI [8] of 48.3 µM and a GI50 [9] of 0.466 µM. It also gave a TGI [9] of 17.3 µM, a GI50 [10] of 0.633 µM and a TGI [10] of 21.3 µM.

Compound NC(=O)c1cc(-c2ccncc2)cc(-c2ccccc2)c1N has a GI50 [1] greater than 25 µM, a TGI [1] greater than 25 µM and a GI50 [2] greater than 22.9 µM. The TGI [2] was greater than 25 µM, the GI50 [3] was 19 µM and the TGI [3] was greater than 25 µM. The GI50 [4] was greater than 24.1 µM, the TGI [4] was greater than 25 µM and the GI50 [5] was greater than 20.6 µM. The TGI [5] was greater than 25 µM, the GI50 [6] was 8.34 µM and the TGI [6] was greater than 25 µM. The GI50 [7] was 5.41 µM, the TGI [7] was 24.9 µM and the GI50 [8] was greater than 25 µM. It also gave a TGI [8] greater than 25 µM, a GI50 [9] of 6.43 µM and a TGI [9] greater than 25 µM. For the same compound, the GI50 [10] was greater than 25 µM and the TGI [10] was greater than 25 µM.

For COc1cc(NS(C)(=O)=O)ccc1Nc1c2ccccc2nc2c(C)cccc12, the GI50 [1] was 0.134 µM and 0.191 µM, the TGI [1] was 2.88 µM and 11.4 µM and the GI50 [2] was 0.145 µM and 0.163 µM. For the same compound, the TGI [2] was 7 µM and 11.5 µM, the GI50 [3] was 0.202 µM and 0.242 µM and the TGI [3] was 2.61 µM and 3.53 µM. The GI50 [4] was 0.182 µM and 0.211 µM, the TGI [4] was 2.97 µM and 4.19 µM and the GI50 [5] was 1.86 µM and 2.6 µM. The TGI [5] was 9.74 µM and 16.7 µM, the GI50 [6] was 0.073 µM and 0.0923 µM and the TGI [6] was 4.6 µM and 5.71 µM. For the same compound, the GI50 [7] was 0.258 µM and 0.326 µM, the TGI [7] was 1.72 µM and 3.36 µM and the GI50 [8] was 0.443 µM and 0.372 µM. For the same compound, the TGI [8] was 8.98 µM and 2.09 µM, the GI50 [9] was 0.476 µM and 0.16 µM and the TGI [9] was 2.94 µM and 1.38 µM. The GI50 [10] was 0.266 µM and 0.288 µM and the TGI [10] was 13.6 µM and 14.2 µM.

N=Nc1c(OC(=O)Nc2ccccc2)[nH]c2ccccc12 showed a TGI [1] of 33.2 µM, a TGI [2] of 22.7 µM and a TGI [3] greater than 100 µM. The TGI [4] was 35.5 µM, the TGI [5] was 30.7 µM and the TGI [6] was 32.8 µM. For the same compound, the TGI [7] was 28.7 µM, the TGI [8] was 96.2 µM and the TGI [9] was 60.8 µM. The TGI [10] was greater than 100 µM.

CC(=O)Nc1ccc(-c2c3nc(c(-c4cc5ccccc5[n+](C)c4)c4ccc([nH]4)c(-c4ccc(NC(C)=O)cc4)c4nc(c(-c5cc6ccccc6[n+](C)c5)c5ccc2[nH]5)C=C4)C=C3)cc1 was tested, and the GI50 [1] was 17.3 µM, the TGI [1] was greater than 50 µM and the GI50 [2] was 5.93 µM. It also gave a TGI [2] of 17.1 µM, a GI50 [3] greater than 50 µM and a TGI [3] greater than 50 µM. It also gave a GI50 [4] of 23.9 µM, a TGI [4] greater than 50 µM and a GI50 [5] of 3.76 µM. The TGI [5] was 30.3 µM, the GI50 [6] was 4.81 µM and the TGI [6] was 29.7 µM. For the same compound, the GI50 [7] was 2.05 µM, the TGI [7] was 14.5 µM and the GI50 [8] was 40.3 µM. For the same compound, the TGI [8] was greater than 50 µM, the GI50 [9] was 15.2 µM and the TGI [9] was 44.6 µM. It also gave a GI50 [10] of 35 µM and a TGI [10] greater than 50 µM.

In the case of COC1C(O)C(C)OC(OC2C(Oc3cccc4c(O)c5c(=O)oc6ccc(C)c7c(=O)oc(c34)c5c67)OC(C)C3O[C@H](c4ccccc4)OC32)C1O (some centres undefined), the GI50 [1] is reported as 0.32 µM and 0.2 µM, the TGI [1] is reported as 4.75 µM and the GI50 [2] is reported as 0.484 µM. It also gave a TGI [2] of 3.19 µM, a GI50 [3] of 0.516 µM and a TGI [3] of 6.65 µM. It also gave a GI50 [4] of 0.304 µM, a TGI [4] of 1.9 µM and a TGI [5] of 9.75 µM. For the same compound, the GI50 [6] was 0.134 µM, the TGI [6] was 0.616 µM and 5.28 µM and the TGI [7] was 5.91 µM. For the same compound, the TGI [8] was 10.2 µM, the TGI [9] was 7.37 µM and the TGI [10] was 5.83 µM.

C=C1C(=O)O[C@H]2[C@H]1CC/C(Cn1cc(CNCCc3c[nH]c4ccc(Cl)cc34)nn1)=C\CC[C@@]1(C)O[C@@H]21 was tested, and the GI50 [1] was 17 µM, the TGI [1] was 45.5 µM and the GI50 [2] was 5.95 µM. It also gave a TGI [2] of 18.5 µM, a GI50 [3] of 13.4 µM and a TGI [3] of 29.9 µM. For the same compound, the GI50 [4] was 4.65 µM, the TGI [4] was 16.9 µM and the GI50 [5] was 5.23 µM. It also gave a TGI [5] of 19.7 µM, a GI50 [6] of 15.2 µM and a TGI [6] of 28.7 µM. The GI50 [7] was 2.66 µM, the TGI [7] was 9.69 µM and the GI50 [8] was 3.32 µM. It also gave a TGI [8] of 11.2 µM, a GI50 [9] of 2.29 µM and a TGI [9] of 7 µM. The GI50 [10] was 12.5 µM and the TGI [10] was 33.6 µM.

Cn1cc(C2=C(c3c4n(c5ccccc35)CCCC4)C(=O)NC2=O)c2ccccc21 gave a GI50 [1] greater than 18.2 µM, a TGI [1] greater than 25 µM and a GI50 [2] greater than 15 µM. The TGI [2] was greater than 25 µM, the GI50 [3] was 11 µM and the TGI [3] was greater than 25 µM. It also gave a GI50 [4] of 6.32 µM, a TGI [4] greater than 25 µM and a GI50 [5] greater than 16.5 µM. It also gave a TGI [5] greater than 25 µM, a GI50 [6] of 8.1 µM and a TGI [6] greater than 25 µM. It also gave a GI50 [7] of 5.86 µM, a TGI [7] greater than 16.1 µM and a GI50 [8] of 9.39 µM. The TGI [8] was greater than 25 µM, the GI50 [9] was greater than 20.1 µM and the TGI [9] was greater than 25 µM. It also gave a GI50 [10] of 12 µM and a TGI [10] greater than 25 µM.

In the case of CN(CCC#N)c1ccc(/C=C(\C#N)c2cccc(C(F)(F)F)c2)cc1, the GI50 [1] is reported as 3.86 µM, the TGI [1] is reported as greater than 100 µM and the GI50 [2] is reported as 11.3 µM. It also gave a TGI [2] greater than 100 µM, a GI50 [3] of 3.14 µM and a TGI [3] greater than 100 µM. The GI50 [4] was 3.96 µM, the TGI [4] was greater than 100 µM and the GI50 [5] was 4.71 µM. The TGI [5] was greater than 100 µM, the GI50 [6] was 4.24 µM and the TGI [6] was greater than 100 µM. For the same compound, the GI50 [7] was 3.75 µM, the TGI [7] was greater than 100 µM and the GI50 [8] was 2.58 µM. For the same compound, the TGI [8] was 11.3 µM, the GI50 [9] was 3.12 µM and the TGI [9] was greater than 100 µM. For the same compound, the GI50 [10] was 6.66 µM and the TGI [10] was greater than 100 µM.

For C/C=C(\C)c1cc(=O)c2c(C)cc3c(c2o1)C(=O)c1c(O)c(C2CC(C)(N(C)C)C(O)C(C)O2)cc(C2CC(N(C)C)C(O)C(C)O2)c1C3=O (centres undefined), the TGI [1] was 1.03 µM and 9.29 µM, the TGI [2] was 5.75 µM and the GI50 [3] was 0.42 µM and 3.22 µM. For the same compound, the TGI [3] was 5.15 µM and 24.4 µM, the TGI [5] was 3.64 µM and 11.2 µM and the GI50 [6] was 0.273 µM and 2.08 µM. The TGI [6] was 5.99 µM, the GI50 [7] was 0.156 µM and 1.39 µM and the TGI [8] was 1.72 µM and 6.46 µM. For the same compound, the TGI [9] was 0.729 µM, the GI50 [10] was 0.134 µM and 0.632 µM and the TGI [10] was 0.738 µM and 4.52 µM.

Cc1cc(=O)oc2c(CN3CCCCC3)c(O)ccc12 showed a TGI [1] greater than 100 µM, a TGI [2] greater than 100 µM and a TGI [3] greater than 100 µM. For the same compound, the TGI [4] was greater than 100 µM, the TGI [5] was greater than 100 µM and the TGI [6] was greater than 100 µM. For the same compound, the TGI [7] was greater than 100 µM, the TGI [8] was greater than 100 µM and the TGI [9] was greater than 100 µM. For the same compound, the TGI [10] was greater than 100 µM.

— PubChem BioAssay (NCI)
